Data as given in patent publication US12129223B2, “Lipids for use in lipid nanoparticle formulations” (Acuitas Therapeutics, Inc., priority 2021, dated 2024).

What was measured:
human IgG in mouse serum = test: Immunoglobulin G (IgG) mRNA in vivo evaluation using lipid nanoparticle compositions; design: species or system mice; conditions: LNP with IgG mRNA, tail vein injection, serum 24 hours after administration; for Serum IgG @ 0.3 mg/kg: 0.3 mg mRNA/kg; for Serum IgG @ 1.0 mg/kg: 1.0 mg mRNA/kg
Method: (§1) A lipid of structure (I), DSPC, cholesterol and PEG-lipid are solubilized in ethanol at a molar ratio of 50:10:38.5:1.5 or 47.5:10:40.7:1.8. Lipid nanoparticles (LNP) are prepared at a total lipid to mRNA weight ratio of approximately 10:1 to 40:1. Briefly, the mRNA is diluted to 0.2 mg/mL in 10 to 50 mM citrate buffer, pH 4 or 10 to 25 mM acetate buffer, pH 4. Syringe pumps are used to mix the ethanolic lipid solution with the mRNA aqueous solution at a ratio of about 1:5 to 1:3 (vol/vol) with total flow rates above 15 mL/min. The ethanol is then removed and the external buffer replaced with PBS by dialysis. Finally, the lipid nanoparticles are filtered through a 0.2 µm pore sterile filter.
Studies are performed in 6-8 week old CD-1/ICR mice (Envigo) according to guidelines established by an institutional animal care committee (ACC) and the Canadian Council on Animal Care (CCAC). Varying doses of mRNA-lipid nanoparticle are systemically administered by tail vein injection and animals euthanized at a specific time point (e.g., 24 hours) post-administration. The whole blood is collected, and the serum subsequentially separated by centrifuging the tubes of the whole blood at 2000×g for 10 minutes at 4° C. and stored at −80° C. until use for analysis.
For immunoglobulin G (IgG) ELISA (Life Diagnostics Human IgG ELISA kit), the serum samples are diluted at 100 to 15000 folds with 1×diluent solution. 100 μL of diluted serum is dispensed into anti-human IgG coated 96-well plate in duplicate alongside human IgG standards and incubated in a plate shaker at 150 rpm at 25° C. for 45 minutes. The wells are washed 5 times with 1× wash solution using a plate washer (400 μL/well). 100 μL of HRP conjugate is added into each well and incubated in a plate shaker at the same condition above. The wells are washed 5 times again with 1× wash solution using a plate washer (400 μL/well). 100 μL of TMB reagent is added into each well and incubated in a plate shaker at the same condition above. The reaction is stopped by adding 100 μL of Stop solution to each well. The absorbance is read at 450 nm (A450) with a microplate reader. The amount of human IgG in mouse serum is determined by plotting A450 values for the assay standard against human IgG concentration.
(§2) Representative compounds of the disclosure shown in Table 2 were formulated using the following molar ratio: 50% cationic lipid/10% distearoylphosphatidylcholine (DSPC)/38.5% Cholesterol/1.5% PEG lipid 2-[2-(ω-methoxy(polyethyleneglycol2000)ethoxy]-N,N-ditetradecyl acetamide) or 47.5% cationic lipid/10% DSPC/40.7% Cholesterol/1.8% PEG lipid. Relative activity was determined by measuring luciferase expression in the liver 4 hours following administration via tail vein injection as described in Example 1 or by measuring the amount of human IgG in mouse serum as described in example 2. The activity was compared at a dose of 1.0 or 0.5 or 0.3 mg mRNA/kg and expressed as ng luciferase/g liver measured 4 hours after administration, as described in Example 1 or as μg IgG/mL serum measured 24 hours after administration, as described in Example 2. Compound numbers in Table 2 refer to the compound numbers of Table 1.

[1] = system: luciferase expression in the liver; test: Luciferase mRNA in vivo evaluation using lipid nanoparticle compositions; design: species or system mice; conditions: LNP with FLuc mRNA, tail vein injection, ng luciferase/g liver 4 hours after administration; for Liver Luc @ 0.3 mg/kg: 0.3 mg mRNA/kg; for Liver Luc @ 1.0 mg/kg: 1.0 mg mRNA/kg
Method: as §1
Studies are performed in 6-8 week old female C57BL/6 mice (Charles River) 8-10 week old CD-1 (Harlan) mice (Charles River) according to guidelines established by an institutional animal care committee (ACC) and the Canadian Council on Animal Care (CCAC). Varying doses of mRNA-lipid nanoparticle are systemically administered by tail vein injection and animals euthanized at a specific time point (e.g., 4 hours) post-administration. Liver and spleen are collected in pre-weighed tubes, weights determined, immediately snap frozen in liquid nitrogen and stored at −80° C. until processing for analysis.
For liver, approximately 50 mg is dissected for analyses in a 2 mL FastPrep tubes (MP Biomedicals, Solon OH). ¼″ ceramic sphere (MP Biomedicals) is added to each tube and 500 μL of Glo Lysis Buffer—GLB (Promega, Madison WI) equilibrated to room temperature is added to liver tissue. Liver tissues are homogenized with the FastPrep24 instrument (MP Biomedicals) at 2×6.0 m/s for 15 seconds. Homogenate is incubated at room temperature for 5 minutes prior to a 1:4 dilution in GLB and assessed using SteadyGlo Luciferase assay system (Promega). Specifically, 50 μL of diluted tissue homogenate is reacted with 50 μL of SteadyGlo substrate, shaken for 10 seconds followed by 5 minute incubation and then quantitated using a CentroXS^3 LB 960 luminometer (Berthold Technologies, Germany). The amount of protein assayed is determined by using the BCA protein assay kit (Pierce, Rockford, IL). Relative luminescence units (RLU) are then normalized to total μg protein assayed. To convert RLU to ng luciferase a standard curve is generated with QuantiLum Recombinant Luciferase (Promega).
The FLuc mRNA (L-6107) from Trilink Biotechnologies will express a luciferase protein, originally isolated from the firefly, Photinus pyralis. FLuc is commonly used in mammalian cell culture to measure both gene expression and cell viability. It emits bioluminescence in the presence of the substrate, luciferin. This capped and polyadenylated mRNA is fully substituted with 5-methylcytidine and pseudouridine.
as §2

[2] = Determination of pKa of formulated lipids (TNS fluorescence assay in lipid nanoparticles); type: physicochemical; conditions: lipid nanoparticles (compound/DSPC/cholesterol/PEG-lipid), lipid formulated in LNP (lipid/DSPC/cholesterol/PEG-lipid), pH at half-maximal intensity
Method: As described elsewhere, the pKa of formulated lipids is correlated with the effectiveness of LNPs for delivery of nucleic acids (see Jayaraman et al, Angewandte Chemie, International Edition (2012), 51(34), 8529-8533; Semple et al, Nature Biotechnology 28, 172-176 (2010)). In some embodiments, the preferred range of pKa is ˜5 to ˜7. The pKa of each lipid is determined in lipid nanoparticles using an assay based on fluorescence of 2-(p-toluidino)-6-napthalene sulfonic acid (TNS). Lipid nanoparticles comprising compound of structure (I)/DSPC/cholesterol/PEG-lipid (50/10/38.5/1.5 or 47.5:10:40.7:1.8 mol %) in PBS at a concentration of 0.4 mM total lipid are prepared using the in-line process as described in Example 1. TNS is prepared as a 100 μM stock solution in distilled water. Vesicles are diluted to 24 μM lipid in 2 mL of buffered solutions containing 10 mM HEPES, 10 mM MES, 10 mM ammonium acetate, and 130 mM NaCl, where the pH ranged from 2.5 to 11. An aliquot of the TNS solution is added to give a final concentration of 1 μM and following vortex mixing fluorescence intensity is measured at room temperature in a SLM Aminco Series 2 Luminescence Spectrophotometer using excitation and emission wavelengths of 321 nm and 445 nm. A sigmoidal best fit analysis is applied to the fluorescence data and the pKa is measured as the pH giving rise to half-maximal fluorescence intensity.

## CCCCCCCCCCN(CCCCCCCCCC)C(=O)CCCCCCCN(CCCCCCO)CCCCCCCC(=O)N(CCCCCCCCCC)CCCCCCCCCC [Compound I-24, 8,8′-((6-hydroxyhexyl)azanediyl)bis(N,N-didecyloctanamide)]
Human IgG in mouse serum
  Serum IgG @ 0.3 mg/kg: 27.46 ± 9.22 µg/mL
  Serum IgG @ 1.0 mg/kg: 112.31 ± 14.51 µg/mL
[1]
  Liver Luc @ 0.3 mg/kg: 9106 ± 1760 ng/g
  Liver Luc @ 1.0 mg/kg: 38913 ± 14318 ng/g
[2]
  pKa: 6.24

## CCCCCCCCCCN(CCCCCCCCCC)C(=O)CCCCCCCN(CCO)CCCCCCCC(=O)N(CCCCCCCCCC)CCCCCCCCCC [Compound I-22, 8,8′-((2-hydroxyethyl)azanediyl)bis(N,N-didecyloctanamide)]
Human IgG in mouse serum
  Serum IgG @ 0.3 mg/kg: 31.00 ± 9.33 µg/mL
  Serum IgG @ 1.0 mg/kg: 99.12 ± 18.03 µg/mL
[1]
  Liver Luc @ 0.3 mg/kg: 12829 ± 3326 ng/g
  Liver Luc @ 1.0 mg/kg: 38933 ± 23162 ng/g
[2]
  pKa: 6.47

## CCCCCCCCCCN(CCCCCCCCN(C)CCCCCCCC(=O)N(CCCCCCCCCC)CCCCCCCCCC)C(=O)CCCCCCCCC [Compound I-73, N-decyl-N-(8-((8-(didecylamino)-8 oxooctyl)(methyl)amino)octyl)decanamide]
Human IgG in mouse serum
  Serum IgG @ 0.3 mg/kg: 27.72 ± 6.23 µg/mL
  Serum IgG @ 1.0 mg/kg: 213.39 ± 18.85 µg/mL
[2]
  pKa: 6.32

## CCCCCCCCCCN(CCCCCCCCCC)C(=O)CCCCCCCN(CCCCCO)CCCCCCCC(=O)N(CCCCCCCCCC)CCCCCCCCCC [Compound I-21, 8,8′-((5-hydroxypentyl)azanediyl)bis(N,N-didecyloctanamide)]
Human IgG in mouse serum
  Serum IgG @ 0.3 mg/kg: 48.78 ± 6.88 µg/mL
  Serum IgG @ 1.0 mg/kg: 220.38 ± 62.57 µg/mL
[1]
  Liver Luc @ 0.3 mg/kg: 29492 ± 4887 ng/g
  Liver Luc @ 1.0 mg/kg: 43216 ± 25636 ng/g
[2]
  pKa: 6.54

## CCCCCCCCCCN(CCCCCCCCCC)C(=O)CCCCCCN(C)CCCCCCC(=O)N(CCCCCCCCCC)CCCCCCCCCC [Compound I-75, 7,7′-(methylazanediyl)bis(N,N-didecylheptanamide)]
Human IgG in mouse serum
  Serum IgG @ 0.3 mg/kg: 84.87 ± 12.19 µg/mL
  Serum IgG @ 1.0 mg/kg: 343.06 ± 42.39 µg/mL
[2]
  pKa: 6.48

## CCCCCCCCCCN(CCCCCCCCCC)C(=O)CCCCCCCN(CCCCCCCC(=O)N(CCCCCCCCCC)CCCCCCCCCC)CCCC(C)(C)CO [Compound I-43, 8,8′-((5-hydroxy-4,4-dimethylpentyl)azanediyl)bis(N,N-didecyloctanamide)]
Human IgG in mouse serum
  Serum IgG @ 0.3 mg/kg: 2.45 ± 0.66 µg/mL
  Serum IgG @ 1.0 mg/kg: 9.97 ± 1.17 µg/mL
[2]
  pKa: 6.02

## CCCCCCCCCCCCN(CCCCCCCCCCCC)C(=O)CCCCCCCN(C)CCCCCCCC(=O)N(CCCCCCCCCCCC)CCCCCCCCCCCC [Compound I-40, 8,8′-(methylazanediyl)bis(N,N-didodecyloctanamide)]
Human IgG in mouse serum
  Serum IgG @ 0.3 mg/kg: 16.72 ± 5.38 µg/mL
  Serum IgG @ 1.0 mg/kg: 101.96 ± 4.12 µg/mL
[2]
  pKa: 6.17

## CCCCCCCCCCN(CCCCCCCCN(CCCCCO)CCCCCCCCN(CCCCCCCCCC)C(=O)CCCCCCCCC)C(=O)CCCCCCCCC [Compound I-66, N,N′-(((5-hydroxypentyl)azanediyl)bis(octane-8,1-diyl))bis(N-decyldecanamide)]
Human IgG in mouse serum
  Serum IgG @ 0.3 mg/kg: 32.06 ± 5.07 µg/mL
  Serum IgG @ 1.0 mg/kg: 253.37 ± 52.48 µg/mL
[2]
  pKa: 6.49

## CCCCCCCCCCN(CCCCCCCCCC)C(=O)CCCCCCCN(CCCCO)CCCCCCCC(=O)N(CCCCCCCCCC)CCCCCCCCCC [Compound I-23, 8,8′-((4-hydroxybutyl)azanediyl)bis(N,N-didecyloctanamide)]
Human IgG in mouse serum
  Serum IgG @ 0.3 mg/kg: 43.34 ± 7.70 µg/mL
  Serum IgG @ 1.0 mg/kg: 103.91 ± 31.29 µg/mL
[1]
  Liver Luc @ 0.3 mg/kg: 15876 ± 7588 ng/g
  Liver Luc @ 1.0 mg/kg: 34202 ± 19178 ng/g
[2]
  pKa: 6.48

## CCCCCCCCCCCCN(CCCCCCCCCCCC)C(=O)CCCCCCCN(CCO)CCCCCCCC(=O)N(CCCCCCCCCCCC)CCCCCCCCCCCC [Compound I-37, 8,8′-((2-hydroxyethyl)azanediyl)bis(N,N-didodecyloctanamide)]
Human IgG in mouse serum
  Serum IgG @ 0.3 mg/kg: 1.75 ± 0.58 µg/mL
  Serum IgG @ 1.0 mg/kg: 10.05 ± 2.32 µg/mL
[2]
  pKa: 6.39

## CCCCCCCCCCN(CCCCCCCCCC)C(=O)CCCCCCCN(CCCO)CCCCCCCC(=O)N(CCCCCCCCCC)CCCCCCCCCC [Compound I-41, 8,8′-((3-hydroxypropyl)azanediyl)bis(N,N-didecyloctanamide)]
Human IgG in mouse serum
  Serum IgG @ 0.3 mg/kg: 4.78 ± 1.65 µg/mL
[2]
  pKa: 6.6

## CCCCCCCCCCCCN(CCCCCCCCN(C)CCCCCCCCN(CCCCCCCCCCCC)C(=O)CCCCCCCCCCC)C(=O)CCCCCCCCCCC [Compound I-67, N,N′-((methylazanediyl)bis(octane-8,1-diyl))bis(N-dodecyldodecanamide)]
Human IgG in mouse serum
  Serum IgG @ 0.3 mg/kg: 7.19 ± 1.41 µg/mL
  Serum IgG @ 1.0 mg/kg: 62.94 ± 13.88 µg/mL
[2]
  pKa: 6.18

## CCCCCCCCCCCCN(CCCCCCCCCCCC)C(=O)CCCCCN(CCCCCCO)CCCCCC(=O)N(CCCCCCCCCCCC)CCCCCCCCCCCC [Compound I-38, 6,6′-((6-hydroxyhexyl)azanediyl)bis(N,N-didodecylhexanamide)]
Human IgG in mouse serum
  Serum IgG @ 0.3 mg/kg: 4.71 ± 0.46 µg/mL
  Serum IgG @ 1.0 mg/kg: 45.87 ± 2.33 µg/mL
[2]
  pKa: 6.48

## CCCCCCCCCCN(CCCCCCCCCC)C(=O)CCCCCCCN(CCCCCCCC(=O)N(CCCCCCCCCC)CCCCCCCCCC)CCN(C)C [Compound I-77]
Human IgG in mouse serum
  Serum IgG @ 0.3 mg/kg: 17.45 ± 2.05 µg/mL
[2]
  pKa: 6.71
